The values that follow come from US10499641B2 (priority 2010, dated 2019).

This assay deals with Phytophthora infestans. The format is in vivo. Particulars: young tomato plants, sprayed, active ingredient concentration 100 ppm, inoculated 1 day after treatment, evaluation 7 days after inoculation; 100% = no infection.

In turn, `C=CCOCc1ccccc1C1CC(c2csc(C3CCN(C(=O)Cn4nc(C(F)F)cc4C(F)F)CC3)n2)=NO1` (stereo not shown) [Example I-94] showed an Eff. % of 100%.

Regarding `O=C(O)c1ccccc1C1CC(c2csc(C3CCN(C(=O)Cn4nc(C(F)F)cc4C(F)F)CC3)n2)=NO1` (stereo not shown) [Example I-134], the Eff. % is on record as 93%.

`CCS(=O)(=O)Oc1ccc(C2CC(c3csc(C4CCN(C(=O)Cn5nc(C(F)(F)F)cc5C)CC4)n3)=NO2)cc1` (stereo not shown) [Example I-97] came in with an Eff. % of 95%.

`Cc1cc(C(F)F)nn1CC(=O)N1CCC(c2nc(C3=NOC(c4ccccc4OS(C)(=O)=O)C3)cs2)CC1` (stereo not shown) [Example I-51] registered an Eff. % of 97%.

As for `CC(C)ON=Cc1ccccc1C1CC(c2csc(C3CCN(C(=O)Cn4nc(C(F)F)cc4C(F)F)CC3)n2)=NO1` (mixture of isomers) [Example I-42], the Eff. % was determined as 100%.

For the compound `CCON=Cc1cccc(C2CC(c3csc(C4CCN(C(=O)Cn5nc(C(F)(F)F)cc5C)CC4)n3)=NO2)c1` (stereo not shown) [Example I-11], the Eff. % is listed as 100%.

Regarding `Cc1ccc(S(=O)(=O)Oc2ccccc2C2(C)CC(c3csc(C4CCN(C(=O)Cn5nc(C(F)F)cc5C)CC4)n3)=NO2)cc1` (stereo not shown) [Example I-49], the Eff. % came out at 94%.

`CS(=O)(=O)Oc1cc(Cl)ccc1C1CC(c2csc(C3CCN(C(=O)Cn4nc(C(F)F)cc4C(F)F)CC3)n2)=NO1` (stereo not shown) [Example I-70] came in with an Eff. % of 97%.

For `Cc1ccc(Cl)cc1NC(=O)N1CCC(c2nc(C3=NOC(c4ccccc4C=NOC(C)C)C3)cs2)CC1` (mixture of isomers) [Example I-37], the Eff. % is listed as 100%.

Compound `Cc1cc(C(F)(F)F)nn1CC(=O)N1CCC(c2nc(C3=NOC(c4cccc(F)c4OCC#N)C3)cs2)CC1` (stereo not shown) [Example I-111] returned an Eff. % of 98%.

As for `O=C(Cn1nc(C(F)F)cc1C(F)F)N1CCC(c2nc(C3=NOC(c4ccccc4OC(=O)C4(Cl)CC4)C3)cs2)CC1` (stereo not shown) [Example I-107], the Eff. % worked out at 100%.

`Cc1ccc(Cl)cc1NC(=O)N1CCC(c2nc(C3=NOC(c4cccc(C=NOC(C)C)c4)C3)cs2)CC1` (stereo not shown) [Example I-13]: the Eff. % turned out to be 100%.

`CC1(c2ccccc2OS(C)(=O)=O)CC(c2csc(C3CCN(C(=O)Cn4nc(C(F)F)cc4C(F)F)CC3)n2)=NO1` (stereo not shown) [Example I-43]: the Eff. % turned out to be 94%.

Compound `CC(=NOC(C)C)c1cccc(C2CC(c3csc(C4CCN(C(=O)Cn5nc(C(F)(F)F)cc5C)CC4)n3)=NO2)c1` (mixture of isomers) [Example I-9] had an Eff. % of 100%.

The compound `COCCSCc1ccccc1C1CC(c2csc(C3CCN(C(=O)Cn4nc(C(F)F)cc4C(F)F)CC3)n2)=NO1` (stereo not shown) [Example I-100] came in with an Eff. % of 100%.

In turn, `N#CCOc1cccc(C2CC(c3csc(C4CCN(C(=O)Cn5nc(C(F)F)cc5C(F)F)CC4)n3)=NO2)c1` (stereo not shown) [Example I-110] displayed an Eff. % of 100%.

In turn, `CCS(=O)(=O)Oc1cccc(C2CC(c3csc(C4CCN(C(=O)Cn5nc(C(F)(F)F)cc5C)CC4)n3)=NO2)c1` (stereo not shown) [Example I-99] displayed an Eff. % of 100%.

Turning to `Cc1cc(C(F)(F)F)nn1CC(=O)N1CCC(c2nc(C3=NOC(c4ccc(OS(C)(=O)=O)cc4)C3)cs2)CC1` (stereo not shown) [Example I-96], the Eff. % amounted to 95%.

Take `Cc1cc(C(F)(F)F)nn1CC(=O)N1CCC(c2nc(C3=NOC(c4cccc(OS(=O)(=O)C5CC5)c4)C3)cs2)CC1` (stereo not shown) [Example I-101]: the Eff. % is on record as 100%.

Compound `Cc1cc(C(F)(F)F)nn1CC(=O)N1CCC(c2nc(C3=NOC(c4ccccc4C=NOC(C)C)C3)cs2)CC1` (mixture of isomers) [Example I-39] gave an Eff. % of 100%.

`COCC[S+]([O-])Cc1ccccc1C1CC(c2csc(C3CCN(C(=O)Cn4nc(C(F)F)cc4C(F)F)CC3)n2)=NO1` (stereo not shown) [Example I-56] had an Eff. % of 94%.

The compound `N#CCOc1cc(Cl)ccc1C1CC(c2csc(C3CCN(C(=O)Cn4nc(C(F)F)cc4C(F)F)CC3)n2)=NO1` (stereo not shown) [Example I-71] showed an Eff. % of 100%.
